Results from paper PMC4533002 (2015).

Assays:
[1] = system: F-St1A/St2-AmpA-Rev primA duplex split adenosine aptamer (DNA, aptamer) ACCTGGGGGAGTA/CCAACCGTGAAAAGATGATGGTGCGGAGGAAGGTCTTAGGTCTATCCCGATGCC/GGCATCGGGATAGACCTAAG; experiment: fluorescence anisotropy; details: 50 mM NaCl, 10 mM MgCl2, 10 mM Tris pH 7.5, 25 °C, 10 nM F-St1A, 400 nM St2-AmpA-Rev primA duplex
[2] = system: F-St1A/St2-AmpA split adenosine aptamer with primer regions (DNA, aptamer) ACCTGGGGGAGTA/CCAACCGTGAAAAGATGATGGTGCGGAGGAAGGTCTTAGGTCTATCCCGATGCC; experiment: fluorescence anisotropy; details: 50 mM NaCl, 10 mM MgCl2, 10 mM Tris pH 7.5, 25 °C, 10 nM F-St1A, 400 nM St2-AmpA
[3] = system: St1-CholB/St2-AmpB/Rev primB (system B) (DNA, aptamer) ATACCTGGGGGAGTATATAAT/CACACAGGAAACAGCGTATGACAATTATAGCGGAGGAAGGTATCCGTAGCCCTATCTGGATTGC/GCAATCCAGATAGGGCTACGG; experiment: capillary electrophoresis isolation with real-time PCR; details: 25 mM NaCl, 5 mM MgCl2; 20 mM Tris pH 7.5, 0.5 mM Brij 35, 20 °C; adenosine up to 50 μM
[4] = system: F-St1A/St2 split adenosine aptamer (initial sandwich) (DNA, aptamer) ACCTGGGGGAGTA/TGCGGAGGAAGGT; experiment: fluorescence anisotropy; details: 50 mM NaCl, 10 mM MgCl2, 10 mM Tris pH 7.5, 25 °C, 10 nM F-St1A, 400 nM St2
[5] = system: St1-CholA/F-St2-AmpA/Rev primA (system A) (DNA, aptamer) ACCTGGGGGAGTA/CCAACCGTGAAAAGATGATGGTGCGGAGGAAGGTCTTAGGTCTATCCCGATGCC/GGCATCGGGATAGACCTAAG; experiment: capillary electrophoresis with LIF (MEKC); details: 50 mM NaCl, 10 mM MgCl2 (incubation); 25 mM NaCl (running buffer); Tris pH 7.5 (incubation), pH 7.8 (running), 0.5 mM Brij 35, 20 °C; 500-2000 μM adenosine

apparent Kd [1]: ~ 90 μM | apparent Kd [2]: > 500 µM | binding [3]: yes | apparent Kd [4]: ~ 90 μM | binding [5]: yes
SMILES: Nc1ncnc2c1ncn2[C@@H]1O[C@H](CO)[C@@H](O)[C@H]1O
